From ChEMBL document CHEMBL1127204, “Synthesis of 1,3-diamino-2-hydroxypropane derivatives as pseudosymmetric HIV protease inhibitors” (Bioorg Med Chem Lett, 1993)
The source made the active and inactive calls. No cut-off for these calls is given here.

Target: Human immunodeficiency virus type 1 protease (Human immunodeficiency virus 1) (UniProt Q72874)
Assay: Tested in vitro for inhibition of HIV-1 protease at concentration of 10e-6 M; No activity

inhibition	SMILES
inactive	CC(C)C(NC(=O)C1Cc2ccccc2CN1CC(O)CN1Cc2ccccc2CC1C(=O)NC(C(=O)NC(C)(C)C)C(C)C)C(=O)NC(C)(C)C (centres undefined)
inactive	N[C@H](CCNC(=O)C1Cc2ccccc2CN1CC(O)CN1Cc2ccccc2CC1C(=O)NCC[C@H](N)C(=O)O)C(=O)O (some centres undefined)
inactive	CC(C)(C)NC(=O)C1Cc2ccccc2CN1CC(O)CN1Cc2ccccc2CC1C(=O)NC(C)(C)C (centres undefined)
inactive	CC(C)C(NC(=O)CN(Cc1ccccc1)CC(O)CN(CC(=O)NC(C(=O)NC(C)(C)C)C(C)C)Cc1ccccc1)C(=O)NC(C)(C)C (centres undefined)
